Measured values reported in patent US20220389007A1, “INHIBITORS OF HUMAN IMMUNODEFICIENCY VIRUS REPLICATION” (VIIV HEALTHCARE UK (No. 5) LIMITED, priority 2019, published 2022).

Key:
[1] = test system: recombinant NL4-3 virus; experiment: HIV cell culture assay (antiviral activity, luciferase readout); type: cell-based; settings: Human immunodeficiency virus 1, NL43, MT2, MT-2 cells infected for 4-5 days with recombinant NL4-3 virus carrying Renilla luciferase
Outline: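 MT-2 cells infected for 4-5 days with NL4-3 reference virus carrying Renilla luciferase in place of part of nef, in presence of serial compound dilutions. Luciferase read with live-cell substrate; EC50 from median effect equation fit.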

[2] = Compound cytotoxicity, XTT-based colorimetric assay; type: cell-based; settings: human; uninfected MT2 cells, day 4, XTT assay
Outline: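 Run under the antiviral-assay protocol but without virus. Viability was read on day 4 and CC50 values were derived from the readout.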

| Structure (SMILES) | EC50 [1] | CC50 at 4 day [2] |
| --- | --- | --- |
| Cc1ccnc(-c2ccc3c(=O)n(-c4ccc(Cl)c5c(NS(C)(=O)=O)nn(C)c45)c([C@H](Cc4cc(F)cc(F)c4)NC(=O)Cn4nc(C(F)F)c5c4C(F)(F)[C@@H]4C[C@H]54)nc3n2)n1 (atropisomer, axis not shown; (P)) [Example 10, N-((S)-1-((3P)-3-(4-chloro-1-methyl-3-(methylsulfonamido)-1H-indazol-7-yl)-7-(4-methylpyrimidin-2-yl)-4-oxo-3,4-dihydropyrido[2,3-d]pyrimidin-2-yl)-2-(3,5-difluorophenyl)ethyl)-2-((3bS,4aR)-3-(difluoromethyl)-5,5-difluoro-3b,4,4a,5-tetrahydro-1H-cyclopropa[3,4]cyclopenta[1,2-c]pyrazol-1-yl)acetamide] | 0.03 nM | > 100 nM |
| Cc1cc(-c2ccc3c(=O)n(-c4ccc(Cl)c5c(NS(C)(=O)=O)nn(C)c45)c([C@H](Cc4cc(F)cc(F)c4)NC(=O)Cn4nc(C(F)F)c5c4C(F)(F)[C@@H]4C[C@H]54)nc3n2)nn1CC(C)(F)F (single isomer, unassigned) [Example 96] | 0.044 nM | > 100 nM |
| Cn1nc(NS(C)(=O)=O)c2c(Cl)ccc(-n3c([C@H](Cc4cc(F)cc(F)c4)NC(=O)Cn4nc(C(F)F)c5c4C(F)(F)[C@@H]4C[C@H]54)nc4nc(-c5ccnc(C(F)(F)F)n5)ccc4c3=O)c21 (atropisomer, axis not shown; (P)) [Example 37, N-((S)-1-((3P)-3-(4-chloro-1-methyl-3-(methylsulfonamido)-1H-indazol-7-yl)-4-oxo-7-(2-(trifluoromethyl)pyrimidin-4-yl)-3,4-dihydropyrido[2,3-d]pyrimidin-2-yl)-2-(3,5-difluorophenyl)ethyl)-2-((3bS,4aR)-3-(difluoromethyl)-5,5-difluoro-3b,4,4a,5-tetrahydro-1H-cyclopropa[3,4]cyclopenta[1,2-c]pyrazol-1-yl)acetamide] | 0.11 nM | > 100 nM |
| Cn1nc(NS(C)(=O)=O)c2c(Cl)ccc(-n3c([C@H](Cc4cc(F)cc(F)c4)NC(=O)Cn4nc(C(F)F)c5c4C(F)(F)[C@@H]4C[C@H]54)nc4nc(-c5ccn(CC(F)(F)C(F)(F)F)n5)ccc4c3=O)c21 (atropisomer, axis not shown; (P)) [Example 88, N-((S)-1-((3P)-3-(4-chloro-1-methyl-3-(methylsulfonamido)-1H-indazol-7-yl)-4-oxo-7-(1-(2,2,3,3,3-pentafluoropropyl)-1H-pyrazol-3-yl)-3,4-dihydropyrido[2,3-d]pyrimidin-2-yl)-2-(3,5-difluorophenyl)ethyl)-2-((3bS,4aR)-3-(difluoromethyl)-5,5-difluoro-3b,4,4a,5-tetrahydro-1H-cyclopropa[3,4]cyclopenta[1,2-c]pyrazol-1-yl)acetamide] | 0.079 nM | > 100 nM |
| Cc1cc(-c2ccc3c(=O)n(-c4ccc(Cl)c5c(NS(C)(=O)=O)nn(C)c45)c([C@H](Cc4cc(F)cc(F)c4)NC(=O)Cn4nc(C(F)F)c5c4C(F)(F)[C@@H]4C[C@H]54)nc3n2)ccn1 (atropisomer, axis not shown; (P)) [Example 48, N-((S)-1-((3P)-3-(4-chloro-1-methyl-3-(methylsulfonamido)-1H-indazol-7-yl)-7-(2-methylpyridin-4-yl)-4-oxo-3,4-dihydropyrido[2,3-d]pyrimidin-2-yl)-2-(3,5-difluorophenyl)ethyl)-2-((3bS,4aR)-3-(difluoromethyl)-5,5-difluoro-3b,4,4a,5-tetrahydro-1H-cyclopropa[3,4]cyclopenta[1,2-c]pyrazol-1-yl)acetamide] | 0.053 nM | > 100 nM |
| Cn1nc(NS(C)(=O)=O)c2c(Cl)ccc(-n3c([C@H](Cc4cc(F)cc(F)c4)NC(=O)Cn4nc(C(F)F)c5c4C(F)(F)[C@@H]4C[C@H]54)nc4nc(-c5csc(C(C)(C)O)n5)ccc4c3=O)c21 (atropisomer, axis not shown; (P)) [Example 91, N-((S)-1-((3P)-3-(4-chloro-1-methyl-3-(methylsulfonamido)-1H-indazol-7-yl)-7-(2-(2-hydroxypropan-2-yl)thiazol-4-yl)-4-oxo-3,4-dihydropyrido[2,3-d]pyrimidin-2-yl)-2-(3,5-difluorophenyl)ethyl)-2-((3bS,4aR)-3-(difluoromethyl)-5,5-difluoro-3b,4,4a,5-tetrahydro-1H-cyclopropa[3,4]cyclopenta[1,2-c]pyrazol-1-yl)acetamide] | 0.037 nM | > 100 nM |
| Cn1nc(NS(C)(=O)=O)c2c(Cl)ccc(-n3c([C@H](Cc4cc(F)cc(F)c4)NC(=O)Cn4nc(C(F)F)c5c4C(F)(F)[C@@H]4C[C@H]54)nc4nc(-c5cncc(Cl)c5)ccc4c3=O)c21 (atropisomer, axis not shown; (P)) [Example 29, N-((S)-1-((3P)-3-(4-chloro-1-methyl-3-(methylsulfonamido)-1H-indazol-7-yl)-7-(5-chloropyridin-3-yl)-4-oxo-3,4-dihydropyrido[2,3-d]pyrimidin-2-yl)-2-(3,5-difluorophenyl)ethyl)-2-((3bS,4aR)-3-(difluoromethyl)-5,5-difluoro-3b,4,4a,5-tetrahydro-1H-cyclopropa[3,4]cyclopenta[1,2-c]pyrazol-1-yl)acetamide] | 0.057 nM | > 100 nM |
| Cn1nc(NS(C)(=O)=O)c2c(Cl)ccc(-n3c([C@H](Cc4cc(F)cc(F)c4)NC(=O)Cn4nc(C(F)F)c5c4C(F)(F)[C@@H]4C[C@H]54)nc4nc(-c5cccc(F)n5)ccc4c3=O)c21 (atropisomer, axis not shown; (P)) [Example 30, N-((S)-1-((3P)-3-(4-chloro-1-methyl-3-(methylsulfonamido)-1H-indazol-7-yl)-7-(6-fluoropyridin-2-yl)-4-oxo-3,4-dihydropyrido[2,3-d]pyrimidin-2-yl)-2-(3,5-difluorophenyl)ethyl)-2-((3bS,4aR)-3-(difluoromethyl)-5,5-difluoro-3b,4,4a,5-tetrahydro-1H-cyclopropa[3,4]cyclopenta[1,2-c]pyrazol-1-yl)acetamide] | 0.034 nM | > 100 nM |
| Cc1nc2ccc(-c3ccc4c(=O)n(-c5ccc(Cl)c6c(NS(C)(=O)=O)nn(C)c56)c([C@H](Cc5cc(F)cc(F)c5)NC(=O)Cn5nc(C(F)F)c6c5C(F)(F)[C@@H]5C[C@H]65)nc4n3)cc2s1 (atropisomer, axis not shown; (P)) [Example 67, N-((S)-1-((3P)-3-(4-chloro-1-methyl-3-(methylsulfonamido)-1H-indazol-7-yl)-7-(2-methylbenzo[d]thiazol-6-yl)-4-oxo-3,4-dihydropyrido[2,3-d]pyrimidin-2-yl)-2-(3,5-difluorophenyl)ethyl)-2-((3bS,4aR)-3-(difluoromethyl)-5,5-difluoro-3b,4,4a,5-tetrahydro-1H-cyclopropa[3,4]cyclopenta[1,2-c]pyrazol-1-yl)acetamide] | 0.55 nM | > 100 nM |
| Cn1nc(NS(C)(=O)=O)c2c(Cl)ccc(-n3c([C@H](Cc4cc(F)cc(F)c4)NC(=O)Cn4nc(C(F)F)c5c4C(F)(F)[C@@H]4C[C@H]54)nc4nc(-c5ncccn5)ccc4c3=O)c21 (atropisomer, axis not shown; (P)) [Example 47, N-((S)-1-((3P)-3-(4-chloro-1-methyl-3-(methylsulfonamido)-1H-indazol-7-yl)-4-oxo-7-(pyrimidin-2-yl)-3,4-dihydropyrido[2,3-d]pyrimidin-2-yl)-2-(3,5-difluorophenyl)ethyl)-2-((3bS,4aR)-3-(difluoromethyl)-5,5-difluoro-3b,4,4a,5-tetrahydro-1H-cyclopropa[3,4]cyclopenta[1,2-c]pyrazol-1-yl)acetamide] | 0.067 nM | > 100 nM |
| Cn1nc(NS(C)(=O)=O)c2c(Cl)ccc(-n3c([C@H](Cc4cc(F)cc(F)c4)NC(=O)Cn4nc(C(F)F)c5c4C(F)(F)[C@@H]4C[C@H]54)nc4nc(-n5cnc(C(F)(F)F)n5)ccc4c3=O)c21 (atropisomer, axis not shown; (P)) [Example 80, N-((S)-1-((3P)-3-(4-chloro-1-methyl-3-(methylsulfonamido)-1H-indazol-7-yl)-4-oxo-7-(3-(trifluoromethyl)-1H-1,2,4-triazol-1-yl)-3,4-dihydropyrido[2,3-d]pyrimidin-2-yl)-2-(3,5-difluorophenyl)ethyl)-2-((3bS,4aR)-3-(difluoromethyl)-5,5-difluoro-3b,4,4a,5-tetrahydro-1H-cyclopropa[3,4]cyclopenta[1,2-c]pyrazol-1-yl)acetamide] | 0.028 nM | > 100 nM |
| Cn1nc(NS(C)(=O)=O)c2c(Cl)ccc(-n3c([C@H](Cc4cc(F)cc(F)c4)NC(=O)Cn4nc(C(F)F)c5c4C(F)(F)[C@@H]4C[C@H]54)nc4nc(-c5cncc(C(F)(F)F)n5)ccc4c3=O)c21 (atropisomer, axis not shown; (P)) [Example 13, N-((S)-1-((3P)-3-(4-chloro-1-methyl-3-(methylsulfonamido)-1H-indazol-7-yl)-4-oxo-7-(6-(trifluoromethyl)pyrazin-2-yl)-3,4-dihydropyrido[2,3-d]pyrimidin-2-yl)-2-(3,5-difluorophenyl)ethyl)-2-((3bS,4aR)-3-(difluoromethyl)-5,5-difluoro-3b,4,4a,5-tetrahydro-1H-cyclopropa[3,4]cyclopenta[1,2-c]pyrazol-1-yl)acetamide] | 0.04 nM | > 100 nM |
